According to patent publication US20230382894A1, “CCR4 ANTAGONISTS” (CHEMOCENTRYX, INC., priority 2022, published 2023):

Biological target: T1, CCR4 (Homo sapiens, UniProt P51679)
T1 construct: CEM Cells Endogenous Express CCR4; endogenous in cells; host or cells: CEM cells
T1 sequence (P51679 1-360): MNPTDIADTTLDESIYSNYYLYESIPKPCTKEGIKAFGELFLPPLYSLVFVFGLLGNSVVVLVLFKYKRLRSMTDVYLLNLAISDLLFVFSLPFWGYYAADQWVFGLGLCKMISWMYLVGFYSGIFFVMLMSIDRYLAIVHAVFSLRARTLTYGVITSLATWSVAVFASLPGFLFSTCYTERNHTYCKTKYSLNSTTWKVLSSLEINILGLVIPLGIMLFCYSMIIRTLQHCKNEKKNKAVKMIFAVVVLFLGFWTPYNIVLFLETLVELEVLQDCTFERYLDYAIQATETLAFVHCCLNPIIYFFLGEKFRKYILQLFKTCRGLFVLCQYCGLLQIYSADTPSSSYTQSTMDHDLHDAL
Assay: CEM cell chemotaxis (migration) assay to CCL22 (MDC) in 100% Fetal Bovine Serum (FBS)
Assay type: cell-based
Settings: CEM cells in 100% FBS with 1% HEPEs; recombinant human CCL22 0.1 nM; 37° C. 60 minutes
Text: CEM Cells Endogenous Express CCR4
A chemotaxis assay can be used to determine the efficacy of potential receptor antagonists at blocking the migration mediated through chemokine receptors, such as CCR4. This assay is routinely performed using the ChemoTX® microchamber system with a 5 μm pore-sized polycarbonate membrane.
FBS: CEM Cells are collected by centrifugation at 400×g at room temperature, then suspended at 5 million/ml in 100% Fetal Bovine Serum (FBS) with 1% HEPEs. The compound being tested is serially diluted from a maximum final concentration of 10 μM (or an equivalent volume of its solvent (DMSO)) and is then added to the cell/buffer mixture. Separately, recombinant human CCL22 (MDC) at its EC50 concentration (0.1 nM) is placed in the lower wells of the ChemoTX® plate. The 5-μm (pore size) polycarbonate membrane was placed onto the plate, and 20 μL of the cell/compound mixture is transferred onto each well of the membrane. The plates are incubated at 37° C. for 60 minutes, after which the polycarbonate membranes are removed and 5 μl of the DNA-intercalating dye CyQUANT (Invitrogen, Carlsbad, CA) is added to the lower wells. The amount of fluorescence, corresponding to the number of migrated cells, is measured using a Spectrafluor Plus plate reader (TECAN, San Jose, CA).

IC50, 100 to 1000 nM:
Cc1cc(Cl)ccc1[C@@H](C)Nc1nc(N2CCN(C(=O)[C@H]3CCC(=O)N3)CC2)ncc1Cl [Example 1.088], Cc1cc(Cl)ccc1[C@@H](C)Nc1nc(N2CCN(C(=O)[C@H]3CCC(=O)N3)CC2)ncc1F [Example 1.089], C[C@@H](Nc1cc(C(F)(F)F)nc(N2CCN(C(=O)[C@H]3CCC(=O)N3)CC2)n1)c1ccc(Cl)cc1Cl [Example 1.092], C[C@@H](Nc1nc(N2CC[C@H](NC(=O)[C@H]3CCC(=O)N3)[C@@H](O)C2)ncc1Cl)c1ccc(Cl)cc1Cl [Example 1.093], C[C@@H](Nc1nc(N2CCN(C(=O)[C@H]3CCC(=O)N3)CC2)ncc1C1CC1)c1ccc(Cl)cc1Cl [Example 1.098], C[C@@H](Nc1nc(N2CCN(C(=O)[C@H]3CCC(=O)N3)CC2)ncc1OCC(F)(F)F)c1ccc(Cl)cc1Cl [Example 1.099], C[C@@H](Nc1nc(N2CC[C@H](NC(=O)[C@H]3CCC(=O)N3)[C@@H](F)C2)ncc1Cl)c1ccc(Cl)cc1Cl [Example 1.106], C[C@@H](Nc1nc(N2CC[C@H](NC(=O)[C@H]3COCCN3)[C@@H](O)C2)ncc1Cl)c1ccc(Cl)cc1Cl [Example 1.125], C[C@@H](Nc1nc(N2CCN(C(=O)C(N)(CO)CCl)CC2)ncc1Cl)c1ccc(Cl)cc1Cl (stereo partly drawn) [Example 1.126], C[C@@H](Nc1nc(N2CCN(C(=O)[C@@H]3COCCN3)CC2)ncc1Cl)c1ccc(Cl)cc1Cl [Example 1.128], C[C@@H](Nc1nc(N2CCC(NC(=O)[C@H]3C[C@H](F)CN3)CC2)ncc1Cl)c1ccc(Cl)cc1Cl [Example 1.137], C[C@@H](Nc1nc(N2CCN(C(=O)[C@H]3CCCN3C(N)=O)CC2)ncc1Cl)c1ccc(Cl)cc1Cl [Example 1.138]

IC50, < 100 nM:
C[C@@H](Nc1nc(N2CCN(C(=O)[C@H]3CCC(=O)N3)CC2)nc(N)c1Cl)c1ccc(Cl)cc1Cl [Example 1.084], C[C@@H](Nc1nc(N2CCN(C(=O)[C@H]3CCC(=O)N3)CC2)ncc1F)c1ccc(F)cc1Cl [Example 1.085], C[C@@H](Nc1nc(N2CCN(C(=O)[C@H]3CCC(=O)N3)CC2)ncc1F)c1ccc(Cl)cc1F [Example 1.086], C[C@H]1CC[C@H](C(=O)N[C@H]2CCN(c3ncc(Cl)c(N[C@H](C)c4ccc(Cl)cc4Cl)n3)C[C@@H]2F)N1 [Example 1.087], C[C@@H](Nc1nc(N2CC[C@H](NC(=O)[C@H]3CCCN3)[C@H](O)C2)ncc1F)c1ccc(Cl)cc1Cl [Example 1.090], C[C@@H](Nc1nc(N2CCN(C(=O)[C@H]3CCCN3)CC2)ncc1N)c1ccc(Cl)cc1Cl [Example 1.094], C[C@@H](Nc1nc(N2CCN(C(=O)[C@H]3CCC(=O)N3)CC2)ncc1N)c1ccc(Cl)cc1Cl [Example 1.095], COc1cnc(N2CCN(C(=O)[C@H]3CN(C)C(=O)N3)CC2)nc1N[C@H](C)c1ccc(Cl)cc1Cl [Example 1.096], Cc1nc(N2CCN(C(=O)[C@H]3CN(C)C(=O)N3)CC2)nc(N[C@H](C)c2ccc(Cl)cc2Cl)c1Cl [Example 1.097], COCc1cnc(N2CCN(C(=O)[C@H]3CCCN3)CC2)nc1N[C@H](C)c1ccc(Cl)cc1Cl [Example 1.101], COCc1cnc(N2CCN(C(=O)[C@H]3CCC(=O)N3)CC2)nc1N[C@H](C)c1ccc(Cl)cc1Cl [Example 1.102], C[C@@H](Nc1nc(N2CCN(C(=O)[C@H]3CN(C)C(=O)N3)CC2)ncc1F)c1ccc(Cl)cc1Cl [Example 1.103], C[C@@H]1CN(c2ncc(Cl)c(N[C@H](C)c3ccc(Cl)cc3Cl)n2)CCN1C(=O)[C@H]1CN(C)C(=O)N1 [Example 1.104], Cc1nc(N2CCN(C(=O)[C@H]3CCC(=O)N3)[C@H](C)C2)nc(N[C@H](C)c2ccc(Cl)cc2Cl)c1Cl [Example 1.105], C[C@@H](Nc1nc(N2CC[C@H](NC(=O)[C@H]3CCCN3)[C@@H](O)C2)ncc1F)c1ccc(Cl)cc1Cl [Example 1.107], C[C@@H](Nc1nc(N2CCN(C(=O)[C@H]3CCCN3)CC2)ncc1OCC(F)(F)F)c1ccc(Cl)cc1Cl [Example 1.108], C[C@@H](Nc1nc(N2CCN(C(=O)[C@H]3CCC(=O)N3)[C@H](CO)C2)ncc1Cl)c1ccc(Cl)cc1Cl [Example 1.109], C[C@@H](Nc1nc(N2CCN(C(=O)[C@H]3CCC(=O)N3)[C@@H](CO)C2)ncc1Cl)c1ccc(Cl)cc1Cl [Example 1.111], C[C@@H]1CN(c2ncc(Cl)c(N[C@H](C)c3ccc(Cl)cc3Cl)n2)CCN1C(=O)[C@H]1CCC(=O)N1 [Example 1.112], C[C@@H](Nc1nc(N2CCN(C(=O)[C@H]3CCCN3)CC2)ncc1C1CC1)c1ccc(Cl)cc1Cl [Example 1.114], C[C@@H](Nc1ccnc(N2CCN(C(=O)[C@H]3CCCN3)CC2)n1)c1ccc(Cl)cc1Cl [Example 1.115], C[C@@H](Nc1ccnc(N2CCN(C(=O)[C@H]3CCC(=O)N3)CC2)n1)c1ccc(Cl)cc1Cl [Example 1.116], C[C@@H](Nc1nc(N2CCN(C(=O)[C@H]3CCC(=O)N3)CC2)ncc1F)c1ccc(Cl)cc1Cl [Example 1.117], C[C@@H](Nc1nc(N2CC[C@@H](NC(=O)[C@H]3CCCN3)[C@H](O)C2)ncc1OC(F)F)c1ccc(Cl)cc1Cl [Example 1.118], C[C@H]1CC[C@H](C(=O)N[C@H]2CCN(c3ncc(OC(F)F)c(N[C@H](C)c4ccc(Cl)cc4Cl)n3)C[C@@H]2O)N1 [Example 1.119], C[C@@H](Nc1nc(N2CC[C@H](NC(=O)[C@H]3CCCN3)[C@H](O)C2)ncc1OC(F)F)c1ccc(Cl)cc1Cl [Example 1.120], COc1cnc(N2CCN(C(=O)C34CC(CN3)C4)CC2)nc1N[C@H](C)c1ccc(Cl)cc1Cl [Example 1.121], C[C@@H](Nc1nc(N2CCN(C(=O)[C@H]3COC(=O)N3)CC2)ncc1Cl)c1ccc(Cl)cc1Cl [Example 1.122], C[C@@H](Nc1nc(N2CC[C@H](NC(=O)[C@H]3CCC(C)(C)N3)[C@@H](O)C2)ncc1Cl)c1ccc(Cl)cc1Cl [Example 1.123], C[C@@H](Nc1nc(N2CC[C@H](NC(=O)[C@H]3CCCCN3)[C@@H](O)C2)ncc1Cl)c1ccc(Cl)cc1Cl [Example 1.124], C[C@@H](Nc1nc(N2CCC(C3CCCN(CCC(N)=O)C3)CC2)ncc1Cl)c1ccc(Cl)cc1Cl (stereo partly drawn) [Example 1.127], C[C@@H](Nc1nc(N2CCN(C(=O)[C@H]3CNCC(=O)N3)CC2)ncc1Cl)c1ccc(Cl)cc1Cl [Example 1.129], C[C@@H](Nc1nc(N2CCN(C(=O)[C@H]3CCCN3Cc3nnn[nH]3)CC2)ncc1Cl)c1ccc(Cl)cc1Cl [Example 1.139], C[C@@H](Nc1nc(N2CCN(C(=O)[C@H]3C[C@@H](F)CN3)CC2)ncc1Cl)c1ccc(Cl)cc1Cl [Example 1.140]

IC50, > 1000 nM:
C[C@@H](Nc1nc(N2CC[C@H](NC(=O)[C@H]3CCC(=O)N3)[C@H](O)C2)ncc1F)c1ccc(Cl)cc1Cl [Example 1.091], C[C@@H](Nc1nc(N2CC[C@H](NC(=O)[C@H]3CCC(=O)N3)[C@@H](O)C2)ncc1F)c1ccc(Cl)cc1Cl [Example 1.100]
